In US9695155B2, “Herbicidal substituted pyrimidinyloxy benzene compounds” (E. I. DU PONT DE NEMOURS AND COMPANY, priority 2013, dated 2017):

Tests used:
corn = experiment: Test A preemergence; format: in vivo, Zea mays
In short: (§1)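 Pre- and postemergence greenhouse screen. Soil: loam + sand. Spray carrier: solvent mixture, non-phytotoxic, with surfactant. Post timing at 1–2 leaves, height 2–10 cm. Readout: visual injury on a 0–100 scale roughly 10 days after application, untreated plants as reference.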

large (Lg) crabgrass [1] = experiment: Test A preemergence; format: in vivo, Digitaria sanguinalis
In short: as §1

morningglory = experiment: Test C postemergence; format: in vivo, Ipomoea coccinea; conditions: for Plant response rating (0 to 100), Morningglory: postemergence; for Plant response rating, Morningglory: Postemergence, scale 0 to 100 (0 no effect, 100 complete control)
In short: (§2)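 Seeds were sown in loam–sand blend and sprayed preemergence, while plants at 1- to 4-leaf stage (2–18 cm) in peat-based medium received postemergence sprays; test chemicals were formulated in a non-phytotoxic solvent with surfactant. After 13–15 days in a greenhouse, injury was rated visually against controls, 0 (no effect) to 100 (complete control).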

large (Lg) crabgrass [2] = experiment: Test A postemergence; format: in vivo, Digitaria sanguinalis
In short: as §1

lambsquarters = experiment: Test C postemergence; format: in vivo, Chenopodium album; conditions: for Plant response rating (0 to 100), Lambsquarters: postemergence; for Plant response rating, Lambsquarters: Postemergence, scale 0 to 100 (0 no effect, 100 complete control)
In short: as §2

rice = experiment: Test B flooded paddy test; format: in vivo, Oryza sativa; conditions: Flood, 250 g ai/ha; 0 to 100 scale where 0 is no effect and 100 is complete control
In short: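 Plants at 2-leaf stage; pots flooded to 3 cm above soil and compound applied directly into paddy water, depth held throughout. After 13 to 15 days in greenhouse, visual rating versus controls on 0 (no effect) to 100 (complete control) scale.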

barnyardgrass = experiment: Test A preemergence; format: in vivo, Echinochloa crus-galli
In short: as §1

oilseed rape = experiment: Test C postemergence; format: in vivo, Brassica napus; conditions: for Plant response rating (0 to 100), Oilseed Rape: postemergence; for Plant response rating, Oilseed Rape: Postemergence, scale 0 to 100 (0 no effect, 100 complete control)
Source text: Seeds of plant species selected from blackgrass (Alopecurus myosuroides), Italian ryegrass (Lolium multiflorum), wheat, winter (winter wheat, Triticum aestivum), galium (catchweed bedstraw, Galium aparine), corn (Zea mays), large (Lg) crabgrass (Digitaria sanguinalis), giant foxtail (Setaria faberii), johnsongrass (Sorghum halepense), lambsquarters (Chenopodium album), morningglory (Ipomoea coccinea), yellow nutsedge (Cyperus esculentus), pigweed (Amaranthus retroflexus), ragweed (common ragweed, Ambrosia elatior), soybean (Glycine max), barnyardgrass (Echinochloa crus-galli), oilseed rape (Brassica napus), waterhemp (common waterhemp, Amaranthus rudis), kochia (Kochia scoparia), wild oat (Avena fatua), surinam grass (Brachiaria decumbens), foxtail, green (green foxtail, Setaria viridis), goosegrass (Eleusine indica), bromegrass, downy (downy bromegrass, Bromus tectorum), nightshade (eastern black nightshade, Solanum ptycanthum), cocklebur (common cocklebur, Xanthium strumarium), cupgrass, woolly (woolly cupgrass, Eriochloa villosa), bermudagrass (Cynodon dactylon), sunflower, (common oilseed sunflower, Helianthus annuus), Russian thistle (Salsola kali), and velvetleaf (Abutilon theophrasti) were planted into a blend of loam soil and sand and treated preemergence with test chemicals formulated in a non-phytotoxic solvent mixture which included a surfactant.
At the same time, plants selected from these crop and weed species and also barley, winter (winter barley, Hordeum vulgare), windgrass (Apera spica-venti), chickweed (common chickweed, Stellaria media), deadnettle (henbit deadnettle, Lamium amplexicaule), and canarygrass (littleseed canarygrass, Phalaris minor) were planted in pots containing Redi-Earth® planting medium (Scotts Company, 14111 Scottslawn Road, Marysville, Ohio 43041) comprising spaghnum peat moss, vermiculite, wetting agent and starter nutrients and treated with postemergence applications of test chemicals formulated in the same manner. Plants ranged in height from 2 to 18 cm (1- to 4-leaf stage) for postemergence treatments. Treated plants and controls were maintained in a greenhouse for 13 to 15 days, after which time all species were compared to controls and visually evaluated. Plant response ratings, summarized in Table C, are based on a scale of 0 to 100 where 0 is no effect and 100 is complete control. A dash (-) response means no test result.

ragweed = experiment: Test C postemergence; format: in vivo, Ambrosia elatior; conditions: for Plant response rating (0 to 100), Ragweed: postemergence; for Plant response rating, Ragweed: Postemergence, scale 0 to 100 (0 no effect, 100 complete control)
In short: as §2

Italian ryegrass = experiment: Test C postemergence; format: in vivo, Lolium multiflorum; conditions: for Plant response rating (0 to 100), Ryegrass, Italian: postemergence; for Plant response rating, Ryegrass, Italian: Postemergence, scale 0 to 100 (0 no effect, 100 complete control)
In short: as §2

wild oat = experiment: Test C postemergence; format: in vivo, Avena fatua; conditions: for Plant response rating (0 to 100), Oat, Wild: postemergence; for Plant response rating, Oat, Wild: Postemergence, scale 0 to 100 (0 no effect, 100 complete control)
In short: as §2

pigweed = experiment: Test A preemergence; format: in vivo, Amaranthus retroflexus; conditions: for Pigweed plant response rating: 0 to 100 scale, 0 no effect, 100 complete control, approx. 10 days
In short: as §1

large (Lg) crabgrass [3] = experiment: Test C postemergence; format: in vivo, Digitaria sanguinalis; conditions: for Plant response rating, Crabgrass, Large: Postemergence
In short: as §2

[4] = 125 g ai/ha, 0 to 100 scale where 0 is no effect and 100 is complete control
[5] = 500 g ai/ha, 0 to 100 scale, 0 no effect, 100 complete control, approx. 10 days
[6] = 31 g ai/ha, scale 0 to 100 (0 no effect, 100 complete control), 13 to 15 days
[7] = 62 g ai/ha, scale 0 to 100 (0 no effect, 100 complete control)
[8] = 1000 g ai/ha, 0 to 100 scale, 0 no effect, 100 complete control

Structure (SMILES) | Plant response rating (0 to 100), Morningglory (morningglory; 125 g ai/ha) | Plant response rating, Morningglory (morningglory; 31 g ai/ha, 13 to 15 days) | Plant response rating, Morningglory (morningglory; 62 g ai/ha) | Plant response rating (0 to 100), Lambsquarters (lambsquarters; 125 g ai/ha) | Plant response rating, Lambsquarters (lambsquarters; 31 g ai/ha, 13 to 15 days) | Plant response rating, Lambsquarters (lambsquarters; 62 g ai/ha) | Plant response rating, Rice (rice) | Plant response rating (0 to 100), Oilseed Rape (oilseed rape; 125 g ai/ha) | Plant response rating, Oilseed Rape (oilseed rape; 31 g ai/ha, 13 to 15 days) | Plant response rating, Oilseed Rape (oilseed rape; 62 g ai/ha) | Plant response rating (0 to 100), Ragweed (ragweed; 125 g ai/ha) | Plant response rating, Ragweed (ragweed; 31 g ai/ha, 13 to 15 days) | Plant response rating, Ragweed (ragweed; 62 g ai/ha) | Plant response rating (0 to 100), Ryegrass, Italian (Italian ryegrass; 125 g ai/ha) | Plant response rating, Ryegrass, Italian (Italian ryegrass; 31 g ai/ha, 13 to 15 days) | Plant response rating, Ryegrass, Italian (Italian ryegrass; 62 g ai/ha) | Plant response rating (0 to 100), Oat, Wild (wild oat; 125 g ai/ha) | Plant response rating, Oat, Wild (wild oat; 31 g ai/ha, 13 to 15 days) | Plant response rating, Oat, Wild (wild oat; 62 g ai/ha) | Plant response rating (0 to 100), Crabgrass, Large (large (Lg) crabgrass [3]; 125 g ai/ha, postemergence) | also measured
N#Cc1cccc(Oc2ncc(F)cn2)c1-n1cc(Br)cn1 [Compound 62] | 85 | 65 | 70 | 85 | 60 | 60 | 0 | 60 | 20 | 20 | 50 | 40 | 40 | 5 | 0 | 0 | 30 | 0 | 0 | 10 | Plant response rating, Corn (corn; [4]): 0; Corn plant response rating (corn; [5]): 90; Plant response rating, Crabgrass, Large (large (Lg) crabgrass [1]; [4]): 90; Crabgrass, Large plant response rating (large (Lg) crabgrass [1]; [5]): 100; Plant response rating (0 to 100), Morningglory (morningglory; 250 g ai/ha): 90; Plant response rating, Crabgrass, Large (large (Lg) crabgrass [2]; [4]): 90; Plant response rating, Crabgrass, Large (large (Lg) crabgrass [2]; 500 g ai/ha, 0 to 100 scale, 0 no effect, 100 complete control): 100; Plant response rating (0 to 100), Lambsquarters (lambsquarters; 250 g ai/ha): 90; Plant response rating, Barnyardgrass (barnyardgrass; [4]): 60; Barnyardgrass plant response rating (barnyardgrass; [5]): 100; Plant response rating (0 to 100), Oilseed Rape (oilseed rape; 250 g ai/ha): 75; Plant response rating (0 to 100), Ragweed (ragweed; 250 g ai/ha): 50; Plant response rating (0 to 100), Ryegrass, Italian (Italian ryegrass; 250 g ai/ha): 15; Plant response rating (0 to 100), Oat, Wild (wild oat; 250 g ai/ha): 35; Plant response rating, Pigweed (pigweed; [4]): 100; Pigweed plant response rating (pigweed; 500 g ai/ha): 100; Plant response rating (0 to 100), Crabgrass, Large (large (Lg) crabgrass [3]; 250 g ai/ha, postemergence): 35; Plant response rating, Crabgrass, Large (large (Lg) crabgrass [3]; [6]): 5; Plant response rating, Crabgrass, Large (large (Lg) crabgrass [3]; [7]): 5
Clc1cnc(Oc2cccc(Br)c2-n2cc(Br)cn2)nc1 [Compound 65] | 95 | 30 | 65 | 90 | 80 | 75 | 0 | 90 | 25 | 60 | 35 | 5 | 25 | 5 | 0 | 0 | 5 | 0 | 5 | 5 | Plant response rating, Corn (corn; [8]): 40; Plant response rating, Crabgrass, Large (large (Lg) crabgrass [1]; [8]): 100; Plant response rating, Crabgrass, Large (large (Lg) crabgrass [2]; [8]): 100; Plant response rating, Barnyardgrass (barnyardgrass; [8]): 100; Pigweed plant response rating (pigweed; 1000 g ai/ha): 100; Crabgrass, Large plant response rating (large (Lg) crabgrass [3]; 16 g ai/ha, postemergence, visual rating, scale 0 to 100 (0 no effect, 100 complete control), 13 to 15 days): 5; Plant response rating, Crabgrass, Large (large (Lg) crabgrass [3]; [6]): 5; Plant response rating, Crabgrass, Large (large (Lg) crabgrass [3]; [7]): 5
